Assay results: ChEMBL document CHEMBL1124625, “Flavones. 2. Synthesis and structure-activity relationship of flavodilol and its analogues, a novel class of antihypertensive agents with catecholamine depleting properties” (J Med Chem, 1989)
Blank lines part the entries; values can stand above or below the molecule they belong to. The source made the active and inactive calls. The calls are words filed in the database; no cut-off is given here.

Key:
Rattus norvegicus [1] = test: Systolic blood pressure (SBP) in anesthetized spontaneously hypertensive rats (SHR) before administration of 75 mg/kg dose perorally.; type: functional; parameters: unit: mmHg; details: route oral
Rattus norvegicus [2] = test: Systolic blood pressure (SBP) in anesthetized spontaneously hypertensive rats(SHR) at 7.5 hours after administration of 75 mg/kg dose perorally; NS is not statistically significant
Rattus norvegicus [3] = test: Systolic blood pressure (SBP) in anesthetized spontaneously hypertensive rats(SHR) at 7.5 hours after administration of 75 mg/kg dose perorally; NS is not statistically significant.
Rattus norvegicus [4] = test: Compound was evaluated for % decrease in hypothalamus norepinephrine in anesthetized spontaneously hypertensive rats(SHR) at 24 hours after administration of 35 mg/kg dose perorally; type: functional; details: route oral
Rattus norvegicus [5] = test: Compound was evaluated for % decrease in heart norepinephrine in anesthetized spontaneously hypertensive rats(SHR) at 24 hours after administration of 35 mg/kg dose perorally; type: functional; details: route oral
Rattus norvegicus [6] = test: Compound was evaluated for % decrease in adrenal epinephrine in anesthetized spontaneously hypertensive rats(SHR) at 24 hours after administration of 35 mg/kg dose perorally; type: functional; details: route oral
Rattus norvegicus [7] = test: Systolic blood pressure (SBP) in anesthetized spontaneously hypertensive rats(SHR) at 7.5 hours after administration of 75 mg/kg dose perorally; value not statistically significant.; type: functional; details: route oral
Adrenergic receptor beta [8] = molecular target: T1, Adrenergic receptor beta (Rattus norvegicus, UniProt P18090+P10608+P26255)
Description: Inhibition constant from beta adrenergic receptor binding assay

Rattus norvegicus [9] = test: Systolic blood pressure (SBP) in anesthetized spontaneously hypertensive rats(SHR) at 7.5 hours after administration of 35 mg/kg dose perorally; type: functional; details: route oral
Rattus norvegicus [10] = test: Systolic blood pressure (SBP) in anesthetized spontaneously hypertensive rats(SHR) before administration of 35 mg/kg dose perorally; type: functional; parameters: unit not given here; details: route oral
Rattus norvegicus [11] = test: Systolic blood pressure (SBP) in anesthetized spontaneously hypertensive rats(SHR) at 7.5 hours after administration of 35 mg/kg dose perorally; NS is not statistically significant
Adrenergic receptor beta [12] = molecular target: T1, Adrenergic receptor beta; test: Inhibition constant obtained from beta adrenergic receptor binding assay; type: protein assay
Rattus norvegicus [13] = test: Systolic blood pressure (SBP) in anesthetized spontaneously hypertensive rats(SHR) at 7.5 hours after administration of 17 mg/kg dose perorally; type: functional; details: route oral
Rattus norvegicus [14] = test: Systolic blood pressure (SBP) in anesthetized spontaneously hypertensive rats(SHR) before administration of 17 mg/kg dose perorally; type: functional; details: route oral
Rattus norvegicus [15] = test: Systolic blood pressure (SBP) in anesthetized spontaneously hypertensive rats(SHR) at 7.5 hours after administration of 75 mg/kg dose perorally; type: functional; details: route oral
Cavia porcellus = species: Cavia porcellus; test: Inhibition of the isoproterenol response at a dose of 1 x 10e -4M in guinea pig; slight inhibition was found.; type: functional, organism-based
Rattus norvegicus [16] = test: % decrease in adrenal epinephrine in anesthetized spontaneously hypertensive rats(SHR) at 24 hours after administration of 150 mg/kg dose perorally; type: functional; details: route oral
Rattus norvegicus [17] = test: % decrease in heart norepinephrine in anesthetized spontaneously hypertensive rats(SHR) at 24 hours after administration of 150 mg/kg dose perorally; type: functional; details: route oral
Rattus norvegicus [18] = test: % decrease in brain norepinephrine in anesthetized spontaneously hypertensive rats(SHR) at 24 hours after administration of 150 mg/kg dose perorally; details: route oral
Rattus norvegicus [19] = test: % decrease in systolic blood pressure (SBP) in anesthetized spontaneously hypertensive rats(SHR) after administration of 150 mg/kg dose perorally; details: route oral

Compound: CC(C)NCCCOc1ccc2c(=O)cc(-c3ccccc3)oc2c1
Systolic blood pressure (Rattus norvegicus [1]): 204
Decrease in Systolic blood pressure (Rattus norvegicus [2]): Not significant

Compound: O=c1cc(-c2ccccc2)oc2cc(OCC(O)CNCc3ccccc3)ccc12 (stereo not drawn)
Systolic blood pressure (Rattus norvegicus [1]): 223
Decrease in Systolic blood pressure (Rattus norvegicus [3]): Not significant

Compound: CCCNCC(O)COc1ccc2c(=O)c(-c3ccccc3)c(-c3ccccc3)oc2c1 (stereo not drawn)
Decrease (Rattus norvegicus [4]): 12%
Decrease (Rattus norvegicus [5]): 100%
Decrease (Rattus norvegicus [6]): 10%

Compound: O=c1cc(-c2ccccc2)oc2cc(OCC3CO3)ccc12 (stereo not drawn)
Systolic blood pressure (Rattus norvegicus [1]): 120

Compound: COc1ccc(-c2cc(=O)c3ccc(OCC(O)CNC(C)C)cc3o2)cc1 (stereo not drawn)
Systolic blood pressure (Rattus norvegicus [1]): 198
Decrease in Systolic blood pressure (Rattus norvegicus [7]): 10%

Ki (Adrenergic receptor beta [8]): 7.5 µM
Compound: CCNCC(O)COc1ccc2c(=O)cc(-c3ccccc3)oc2c1 (stereo not drawn)
Decrease in Systolic blood pressure (Rattus norvegicus [9]): 16%
Systolic blood pressure (Rattus norvegicus [10]): 186

Compound: CC(C)NCC(O)COc1ccc2c(c1)OC(c1ccccc1)CC2=O (stereo not drawn)
Systolic blood pressure (Rattus norvegicus [1]): 198
Decrease in Systolic blood pressure (Rattus norvegicus [2]): Not significant

Compound: CC(C)NCC(O)COc1ccc2c(=O)c(Cc3ccccc3)c(-c3ccccc3)oc2c1 (stereo not drawn)
Systolic blood pressure (Rattus norvegicus [1]): 200
Decrease in Systolic blood pressure (Rattus norvegicus [2]): Not significant

Compound: O=c1cc(-c2ccccc2)oc2cc(O)ccc12 [7-HYDROXYFLAVONE]
Systolic blood pressure (Rattus norvegicus [1]): 217

Compound: CC(C)NCC(O)COc1cccc2ccccc12 (stereo not drawn) [PROPRANOLOL]
Systolic blood pressure (Rattus norvegicus [1]): 212
Decrease in Systolic blood pressure (Rattus norvegicus [2]): inactive

Compound: O=c1cc(-c2ccccc2)oc2cc(OCC(O)CNCC(O)COc3ccccc3)ccc12 (stereo not drawn)
Systolic blood pressure (Rattus norvegicus [1]): 198
Decrease in Systolic blood pressure (Rattus norvegicus [2]): Not significant

Compound: CC(C)N(Cc1ccccc1)CC(O)COc1ccc2c(=O)cc(-c3ccccc3)oc2c1 (stereo not drawn)
Systolic blood pressure (Rattus norvegicus [1]): 200
Decrease in Systolic blood pressure (Rattus norvegicus [3]): Not significant

Compound: CNCC(O)COc1ccc2c(=O)cc(-c3ccccc3)oc2c1 (stereo not drawn)
Decrease in Systolic blood pressure (Rattus norvegicus [11]): Not significant
Systolic blood pressure (Rattus norvegicus [10]): 190

Ki (Adrenergic receptor beta [8]): 23 µM
Compound: Cc1cc(=O)c2ccc(OCC(O)CNC(C)C)cc2o1 (stereo not drawn)
Systolic blood pressure (Rattus norvegicus [1]): 196
Decrease in Systolic blood pressure (Rattus norvegicus [3]): inactive

Ki (Adrenergic receptor beta [8]): 0.0075 µM
Compound: CC(C)NCC(O)COc1cccc2c(=O)cc(-c3ccccc3)oc12 (stereo not drawn)
Systolic blood pressure (Rattus norvegicus [1]): 209

Ki (Adrenergic receptor beta [12]): 5.5 µM
Compound: O=c1cc(-c2ccccc2)oc2cc(OCC(O)CNC3CCCCC3)ccc12 (stereo not drawn)
Decrease in Systolic blood pressure (Rattus norvegicus [9]): 20%
Systolic blood pressure (Rattus norvegicus [10]): 201

Compound: O=c1cc(-c2ccccc2)oc2cc(OCC(O)CNCCO)ccc12 (stereo not drawn)
Systolic blood pressure (Rattus norvegicus [1]): 189
Decrease in Systolic blood pressure (Rattus norvegicus [3]): Not significant

Ki (Adrenergic receptor beta [8]): 1.5 µM
Compound: O=c1cc(-c2ccccc2)oc2cc(OCC(O)CNC3CC3)ccc12 (stereo not drawn)
Systolic blood pressure (Rattus norvegicus [1]): 196
Decrease in Systolic blood pressure (Rattus norvegicus [13]): 21%
Systolic blood pressure (Rattus norvegicus [14]): 197
Decrease in Systolic blood pressure (Rattus norvegicus [15]): 32%
Decrease in Systolic blood pressure (Rattus norvegicus [9]): 31%
Activity (Cavia porcellus): Weak activity
Systolic blood pressure (Rattus norvegicus [10]): 198

Compound: CC(C)NCC(O)COc1ccc2c(=O)c(-c3ccccc3)coc2c1 (stereo not drawn)
Decrease (Rattus norvegicus [16]): 100%
Decrease (Rattus norvegicus [17]): 100%
Decrease (Rattus norvegicus [18]): 37%
% decrease SBP (Rattus norvegicus [19]): 34%
